Legend:
Format in all cases: binding
core-bradavidin [1] = molecular target: T1, core-bradavidin (Bradyrhizobium diazoefficiens, UniProt Q89IH6); assay: differential scanning calorimetry; details: 50 mM sodium phosphate pH 7.0, 100 mM NaCl; 15 µM protein, ~3:1 biotin:subunit; 120 °C/hour
T1 construct: gene blr5658; C-terminally truncated core form, 118 residues (truncation between Leu118 and Leu119), lacks Brad-tag; E. coli BL21-AI periplasm; homotetramer

wt bradavidin [2] = molecular target: T2, wt bradavidin (Bradyrhizobium diazoefficiens, UniProt Q89IH6); assay: differential scanning calorimetry; details: 50 mM sodium phosphate pH 7.0, 100 mM NaCl; 15 µM protein, ~3:1 biotin:subunit; 120 °C/hour
T2 construct: gene blr5658; E. coli BL21-AI periplasm; homotetramer
T2 sequence (Q89IH6 26-163): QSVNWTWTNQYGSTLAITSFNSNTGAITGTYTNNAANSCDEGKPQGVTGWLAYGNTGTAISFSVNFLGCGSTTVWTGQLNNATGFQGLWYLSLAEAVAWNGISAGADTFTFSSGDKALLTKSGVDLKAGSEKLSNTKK

core-bradavidin [3] = molecular target: T1, core-bradavidin; assay: isothermal titration calorimetry
From the text: isothermal titration calorimetry on core-bradavidin

wt bradavidin [4] = molecular target: T2, wt bradavidin; assay: isothermal titration calorimetry
From the text: isothermal titration calorimetry on wt bradavidin

O=C(O)CCCC[C@@H]1SC[C@@H]2NC(=O)N[C@@H]21 [D-biotin]
Tm with biotin (core-bradavidin [1]): 97.9±0.2 °C | Tm with biotin (wt bradavidin [2]): 101.7±0.1 °C | Kd (core-bradavidin [3]): < 1 nM | Kd (wt bradavidin [4]): 300 nM

Source: PMC3344845, “Structure of Bradavidin – C-Terminal Residues Act as Intrinsic Ligands” (PLoS ONE, 2012)
